According to patent US20210269824A1, “VIRAL VECTOR FOR TREATING AUTOIMMUNE DISEASE AND DIABETES AND CONSTRUCTION METHOD AND APPLICATION THEREOF” (Guangzhou Huazhen Pharmaceutical Co., Ltd., priority 2017, published 2021):

System: peripheral blood CD4 T-cells of patients with type 1 diabetes
Experiment: Differentiation of peripheral blood CD4 T-cells (Th1, Th2, Th17, Treg) after in vitro treatment, flow cytometry
Assay type: cell-based, human
Conditions: 100 μM, 24 h in vitro, lymphocytes of type 1 diabetes patients
Protocol: (1) 5 ml peripheral blood was extracted from patients and normal humans separately, diluted twice with PBS of pH 7.2, and then mixed with lymphocyte separation solution Lymphoprep (Axis-Shield, Norway), centrifuged at 3500 rpm for 20 min, then the lymphocytes were taken out and cultured in RPMI1640 medium (purchased from Gibco) to obtain the cultured lymphocytes. The above cultured lymphocytes were treated in vitro with DHA (docosahexaenoic acid) at a final concentration of 100 μM, EPA (eicosapentaenoic acid) at a final concentration of 100 μM, and AA (arachidonic acid) at a final concentration of 100 μM for 24 h, respectively. After treating, changes in intracellular cytokines of CD4 T-cells in the above lymphocytes were detected. (The above DHA, EPA and AA are all purchased from Sigma).
(2) labeling of intracellular cytokines of CD4 T-cells: The lymphocytes (number up to 1×10^5) from patients and normal humans in the above steps were placed to different marked tubes. Labeled fluorescent monoclonal antibodies CD3 (0.1 μg) and CD8 (0.1 μg) were added into each tube. Then 1 ml paraformaldehyde having a concentration of 4% by weight was added into each tube, mixed well and incubated at room temperature (20° C.-30° C.) for 20 min. 1 ml intraprep permeabilization reagent, i.e. 0.5% saponin, was added, incubated at room temperature (20° C.-30° C.) for 30 min, then centrifuged for 5 min at 300 g, 4° C. to obtain a supernatant and a precipitate. The supernatant was removed, and 80 μl 0.5% saponin was added to re-suspend the precipitate to obtain suspensions. The obtained suspensions were labeled respectively with IFN-γ fluorescent monoclonal antibody (0.1 μg), IL-17 fluorescent monoclonal antibody (0.1 μg), IL-4 fluorescent monoclonal antibody (0.1 μg), and Foxp3 fluorescent monoclonal antibody (0.1 μg), and incubated in dark place at 4° C. for 1 h (for the suspension labeled with Foxp3 fluorescent monoclonal antibody, incubation and rupture took 8 h). The labeled cells were washed three times with 0.5% saponin, centrifuged for 5 min at 300 g, 4° C. to obtain a supernatant and a precipitate. The supernatant was removed, and the precipitate was fixed with paraformaldehyde having a mass concentration of 1%. After 24 h, percentages of Th1, Th2, Th17 and Treg cells were analyzed with a flow cytometer Accuri-C6. The antibodies and instruments used in the above steps were all purchased from BD Bioscience.
The CON in FIG. 2 represents a control group, i.e. the lymphocytes of peripheral blood from normal humans not treated with DHA, EPA or AA. The CON in FIG. 3 represents a control group, i.e. the lymphocytes of peripheral blood from patients not treated with DHA, EPA, or AA. In FIG. 2, figures A, B, C, D, and E show percentages of Th1, Th2, Th1/Th2, Th17 and Treg cells in peripheral blood CD4 T-cells of normal subjects, respectively, and figures F, G, H, I and J show percentages of Th1, Th2, Th1/Th2, Th17 and Treg cells in peripheral blood CD4 T-cells of patients, respectively. In FIG. 3, figures A, B, C, and D show percentages of transcription factors T-bet, GATA3, RORγT, and Foxp3 in peripheral blood CD4 T-cells of patients, respectively. As shown in FIGS. 2-3, in peripheral blood CD4 T-cells of patients with type 1 diabetes treated with DHA, EPA and AA respectively, the percentages of Th1 and Th17 cells decreased, and the percentages of Th2 and Treg cells increased, and the ratio of Th1/Th2 and the ratio of T17/Treg were rebalanced.

CCCCC/C=C\C/C=C\C/C=C\C/C=C\CCCC(=O)O [AA, arachidonic acid]
ratio of T17/Treg: rebalanced | ratio of Th1/Th2: rebalanced | percentage of Th1 cells (vs untreated): decreased | percentage of Th2 cells (vs untreated): increased | percentage of Th17 cells (vs untreated): decreased | percentage of Treg cells (vs untreated): increased
